Test results reported in patent US20220280558A1, “MOLECULAR HYDROGEN-CONTAINING COMPOSITION FOR PREVENTING OR IMPROVING OSTEOPOROSIS” (MiZ Company Limited, priority 2021, published 2022).

System: human osteoporosis
Test: Case 1: bone density and symptoms of a person with compression fractures
Format: in vivo
Settings: human patient
Text: In the present specification, bone density can be measured by an existing measuring method, for example, by dual-energy-x-ray absorptiometry (DXA) of the trunk bone.

[1] = hydrogen gas inhalation 1.5% to 2.0% by volume

[HH] [hydrogen gas, molecular hydrogen]
body feeling [1]: feeling that the body became light | daily activity (weeding in the garden) [1]: weeding in the garden becoming easy | feeling when waking up in the morning [1]: having a good feeling and feeling refreshed | gait [1]: improvement in the gait | pain at the compression fracture sites in the lower back [1]: improvement | tiredness [1]: feeling tired less easily | bone density (inhalation from November 2020, 1.5% to 2.0% by volume hydrogen, 30 mL/min, nightly, measured March 2021 (84% in August 2020)): 92%

denosumab [Pralia Subcutaneous Injection, reference compound]
bone density (baseline 74%, injection once every six months, 18 months later): exceeded 80% | bone density (injection once every six months, August 2020): 84% | bone density (injection once every six months, February 2020): 86%
